Results from PubChem BioAssay (NCI).
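Five concentrations, 48 hours, 96-well plates. At the GI50, growth is halved. TGI: concentration producing complete growth inhibition.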

Experiments:
Test in all cases: growth of human tumour cells (NCI), 48 h
OVCAR-5 ovarian = test system: OVCAR-5 ovarian
SR leukemia = test system: SR leukemia
U251 CNS = test system: U251 CNS
TK-10 renal = test system: TK-10 renal
SF-268 CNS = test system: SF-268 CNS
SF-295 CNS = test system: SF-295 CNS
UO-31 renal = test system: UO-31 renal
RXF 393 renal = test system: RXF 393 renal
CAKI-1 renal = test system: CAKI-1 renal
NCI-H226 lung = test system: NCI-H226 lung
OVCAR-3 ovarian = test system: OVCAR-3 ovarian
A549 NSCLC = test system: A549 NSCLC
HL-60(TB) leukemia = test system: HL-60(TB) leukemia
DU-145 prostate = test system: DU-145 prostate
NCI/ADR-RES ovarian = test system: NCI/ADR-RES ovarian
LOX IMVI melanoma = test system: LOX IMVI melanoma
HOP-62 NSCLC = test system: HOP-62 NSCLC
HCT-116 colon = test system: HCT-116 colon
PC-3 prostate = test system: PC-3 prostate
HT29 colon = test system: HT29 colon
T-47D breast = test system: T-47D breast
SNB-75 CNS = test system: SNB-75 CNS
M14 melanoma = test system: M14 melanoma
EKVX NSCLC = test system: EKVX NSCLC
SNB-19 CNS = test system: SNB-19 CNS
RPMI-8226 leukemia = test system: RPMI-8226 leukemia
786-0 renal = test system: 786-0 renal
NCI-H23 lung = test system: NCI-H23 lung
COLO 205 colon = test system: COLO 205 colon
MCF7 breast = test system: MCF7 breast
NCI-H522 lung = test system: NCI-H522 lung
SK-MEL-28 melanoma = test system: SK-MEL-28 melanoma
UACC-257 melanoma = test system: UACC-257 melanoma
HOP-92 NSCLC = test system: HOP-92 NSCLC
HCC-2998 colon = test system: HCC-2998 colon
SF-539 CNS = test system: SF-539 CNS
KM12 colon = test system: KM12 colon
SK-MEL-5 melanoma = test system: SK-MEL-5 melanoma
K-562 leukemia = test system: K-562 leukemia
UACC-62 melanoma = test system: UACC-62 melanoma
MALME-3M melanoma = test system: MALME-3M melanoma
BT-549 breast = test system: BT-549 breast
SK-OV-3 ovarian = test system: SK-OV-3 ovarian
SK-MEL-2 melanoma = test system: SK-MEL-2 melanoma
HS 578T breast = test system: HS 578T breast
NCI-H460 lung = test system: NCI-H460 lung
MDA-MB-435 = test system: MDA-MB-435
SW-620 colon = test system: SW-620 colon
OVCAR-8 ovarian = test system: OVCAR-8 ovarian
A498 renal = test system: A498 renal
OVCAR-4 ovarian = test system: OVCAR-4 ovarian
SN12C renal = test system: SN12C renal
HCT-15 colon = test system: HCT-15 colon
ACHN renal = test system: ACHN renal
CCRF-CEM leukemia = test system: CCRF-CEM leukemia
MDA-MB-231 breast = test system: MDA-MB-231 breast
MOLT-4 leukemia = test system: MOLT-4 leukemia
IGROV1 ovarian = test system: IGROV1 ovarian

CC1=C(CN(O)C(N)=O)C2=C(C)C3(CC3)[C@](C)(O)C(=O)C2=C1
GI50 (OVCAR-5 ovarian): 0.374 µM | TGI (OVCAR-5 ovarian): 5.07 µM | GI50 (SR leukemia): 0.896 µM | TGI (SR leukemia): > 100 µM | GI50 (U251 CNS): 3.47 µM | TGI (U251 CNS): > 100 µM | GI50 (TK-10 renal): 2.01 µM | TGI (TK-10 renal): 8.02 µM | GI50 (SF-268 CNS): 1.72 µM | TGI (SF-268 CNS): > 100 µM | GI50 (SF-295 CNS): 0.789 µM | TGI (SF-295 CNS): > 100 µM | GI50 (UO-31 renal): 0.254 µM | TGI (UO-31 renal): 0.83 µM | GI50 (RXF 393 renal): 0.328 µM | TGI (RXF 393 renal): 1.19 µM | GI50 (CAKI-1 renal): 1.91 µM | TGI (CAKI-1 renal): > 100 µM | GI50 (NCI-H226 lung): 2.03 µM | TGI (NCI-H226 lung): 6.36 µM | GI50 (OVCAR-3 ovarian): 0.557 µM | TGI (OVCAR-3 ovarian): 4.15 µM | GI50 (A549 NSCLC): 3.03 µM | TGI (A549 NSCLC): > 100 µM | GI50 (HL-60(TB) leukemia): 0.952 µM | TGI (HL-60(TB) leukemia): > 100 µM | GI50 (DU-145 prostate): 0.452 µM | TGI (DU-145 prostate): 26 µM | GI50 (NCI/ADR-RES ovarian): 2 µM | TGI (NCI/ADR-RES ovarian): 31.2 µM | GI50 (LOX IMVI melanoma): 6.38 µM | TGI (LOX IMVI melanoma): 36.6 µM | GI50 (HOP-62 NSCLC): 1.85 µM | TGI (HOP-62 NSCLC): 58.7 µM | GI50 (HCT-116 colon): 1.39 µM | GI50 (PC-3 prostate): 1.46 µM | TGI (PC-3 prostate): 11.5 µM | GI50 (HT29 colon): 0.412 µM | TGI (HT29 colon): 13.9 µM | GI50 (T-47D breast): 0.992 µM | TGI (T-47D breast): > 100 µM | GI50 (SNB-75 CNS): 1.28 µM | TGI (SNB-75 CNS): 3.39 µM | GI50 (M14 melanoma): 0.819 µM | TGI (M14 melanoma): 2.96 µM | GI50 (EKVX NSCLC): 2.34 µM | TGI (EKVX NSCLC): 6.85 µM | GI50 (SNB-19 CNS): 2.58 µM | TGI (SNB-19 CNS): > 100 µM | GI50 (RPMI-8226 leukemia): 0.348 µM | TGI (RPMI-8226 leukemia): 2.67 µM | GI50 (786-0 renal): 2.36 µM | TGI (786-0 renal): 15.5 µM | GI50 (NCI-H23 lung): 2.28 µM | TGI (NCI-H23 lung): 9.83 µM | GI50 (COLO 205 colon): 0.753 µM | TGI (COLO 205 colon): 4.58 µM | GI50 (MCF7 breast): 0.366 µM | TGI (MCF7 breast): > 100 µM | GI50 (NCI-H522 lung): 0.721 µM | TGI (NCI-H522 lung): 4.6 µM | GI50 (SK-MEL-28 melanoma): 0.732 µM | TGI (SK-MEL-28 melanoma): 3 µM | GI50 (UACC-257 melanoma): 3.02 µM | TGI (UACC-257 melanoma): 31.3 µM | GI50 (HOP-92 NSCLC): 1.08 µM | TGI (HOP-92 NSCLC): 4.21 µM | GI50 (HCC-2998 colon): 0.219 µM | TGI (HCC-2998 colon): 0.54 µM | GI50 (SF-539 CNS): 2.08 µM | TGI (SF-539 CNS): 6.38 µM | GI50 (KM12 colon): 0.798 µM | TGI (KM12 colon): 11.5 µM | GI50 (SK-MEL-5 melanoma): 5.61 µM | TGI (SK-MEL-5 melanoma): 18.5 µM | GI50 (K-562 leukemia): 1.39 µM | TGI (K-562 leukemia): > 100 µM | GI50 (UACC-62 melanoma): 1.29 µM | TGI (UACC-62 melanoma): 3.06 µM | GI50 (MALME-3M melanoma): 1.83 µM | TGI (MALME-3M melanoma): 3.88 µM | GI50 (BT-549 breast): 1.18 µM | TGI (BT-549 breast): 3.18 µM | GI50 (SK-OV-3 ovarian): 2.62 µM | TGI (SK-OV-3 ovarian): 9.96 µM | GI50 (SK-MEL-2 melanoma): 2.11 µM | TGI (SK-MEL-2 melanoma): 4.85 µM | GI50 (HS 578T breast): 2.63 µM | TGI (HS 578T breast): 9.16 µM | GI50 (NCI-H460 lung): 2.55 µM | TGI (NCI-H460 lung): > 100 µM | GI50 (MDA-MB-435): 0.382 µM | TGI (MDA-MB-435): 1.43 µM | GI50 (SW-620 colon): 1.08 µM | TGI (SW-620 colon): > 100 µM | GI50 (OVCAR-8 ovarian): 0.634 µM | TGI (OVCAR-8 ovarian): > 100 µM | GI50 (A498 renal): 1.35 µM | TGI (A498 renal): 3.25 µM | GI50 (OVCAR-4 ovarian): 1.79 µM | TGI (OVCAR-4 ovarian): 9.19 µM | GI50 (SN12C renal): 2.62 µM | TGI (SN12C renal): > 100 µM | GI50 (HCT-15 colon): 1.29 µM | TGI (HCT-15 colon): 24.8 µM | GI50 (ACHN renal): 1.13 µM | TGI (ACHN renal): 8.69 µM | GI50 (CCRF-CEM leukemia): 2.22 µM | TGI (CCRF-CEM leukemia): > 100 µM | GI50 (MDA-MB-231 breast): 1.11 µM | TGI (MDA-MB-231 breast): 5.88 µM | GI50 (MOLT-4 leukemia): 9.02 µM | TGI (MOLT-4 leukemia): > 100 µM | GI50 (IGROV1 ovarian): 2.24 µM | TGI (IGROV1 ovarian): 6.38 µM
